Experimental data taken from ChEMBL document CHEMBL1126498, “Heterocyclic inhibitors of human leukocyte elastase: 3-Hydroxypyridazopyrimidine, 3-hydroxypyridopyrimidine and 3-hydroxyquinazoline-2,4-1H,3H0dione derivatives” (Bioorg Med Chem Lett, 1993).
Active and inactive are the calls of the source. The rule behind the calls is not given here.

Molecular target: T1, Neutrophil elastase (Homo sapiens) (UniProt P08246)
T1 sequence (whole entry): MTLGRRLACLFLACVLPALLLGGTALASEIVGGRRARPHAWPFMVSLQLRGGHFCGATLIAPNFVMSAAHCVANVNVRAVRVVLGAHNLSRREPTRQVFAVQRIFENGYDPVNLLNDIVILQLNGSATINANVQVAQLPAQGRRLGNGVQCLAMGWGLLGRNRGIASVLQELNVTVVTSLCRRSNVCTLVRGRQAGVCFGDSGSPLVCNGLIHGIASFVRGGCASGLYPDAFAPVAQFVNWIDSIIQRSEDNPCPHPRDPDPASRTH
Assay: The bimolecular rate constant Kobs/[I] to inhibit human leukocyte elastase (HLE) was determined; IA denotes inactive

K obs / 1 | SMILES
inactive | O=c1[nH]c2nccnc2c(=O)n1OS(=O)(=O)c1ccccc1
inactive | O=c1[nH]c2ccccc2c(=O)n1OS(=O)(=O)c1ccccc1
inactive | CS(=O)(=O)On1c(=O)[nH]c2nccnc2c1=O
inactive | CS(=O)(=O)On1c(=O)[nH]c2ccccc2c1=O

Molecular target: T1, Neutrophil elastase (Homo sapiens)
Assay: The bimolecular rate constant Kobs/[I] to inhibit human leukocyte elastase (HLE) was determined

SMILES | K obs / 1 [M⁻¹ s⁻¹]
CCCCOP(=O)(OCCCC)On1c(=O)[nH]c2ccccc2c1=O | 3870
CCCOP(=O)(OCCC)On1c(=O)[nH]c2ccccc2c1=O | 3160
CCCCS(=O)(=O)On1c(=O)[nH]c2nccnc2c1=O | 20
CC(C)CS(=O)(=O)On1c(=O)[nH]c2ccccc2c1=O | 170
CCCCS(=O)(=O)On1c(=O)[nH]c2ccccc2c1=O | 180

The remaining lines, values ahead:

K obs / 1 [M⁻¹ s⁻¹] | SMILES
58 | CCCCS(=O)(=O)On1c(=O)[nH]c2ccncc2c1=O
64 | CCCCS(=O)(=O)On1c(=O)[nH]c2cccnc2c1=O
40 | CCCCCS(=O)(=O)On1c(=O)[nH]c2ccccc2c1=O
